Assay results as given in patent US20230303503A1, “CELL ACTIVATABLE IRON CHELATORS” (BOARD OF REGENTS, THE UNIVERSITY OF TEXAS SYSTEM, priority 2020, published 2023).
Several values for one entry are separate records, joined by “and”; a condition that tells them apart may be missing. Equal entries are not always repeated. Where two headings read alike, the source gives them in different places.

What was measured:
[1] = system: A549 human lung cancer cell line; assay: MTT cell viability / antiproliferative assay in A549 cells; format: cell-based; details: for IC50: A549, MTT, triplicate
Method: Cell culture. A549 cells (ATCC® CCL-185™) were maintained in growth medium consisting of RPMI 1640 Medium (Sigma-Aldrich, MO, USA) supplemented with 10% fetal bovine serum (Sigma-Aldrich, MO, USA) and 2% Penicillin/Streptomycin (Sigma-Aldrich, MO, USA). Cells were kept in a humidified atmosphere of 5% CO2 and 95% air at 37° C. and were split when they reached 90% confluency.
Cell viability assay. 1500 cells per well were plated on a 96-well plate (12 rows × 8 wells per row) in 100 µL growth medium and kept at 37° C. under 5% CO2. 24 h after seeding, cells were treated with another 100 µL growth medium containing different concentrations of the drug under evaluation. Cells in each row of the 96-well plate were treated with the same concentration of drug and the first two rows were kept as control and treated with growth medium alone. The highest drug concentration evaluated was 250 µM and lower concentrations were produced via serial dilution by a factor of 3. Treated cells were kept at 37° C. under 5% CO2 for 72 h. Then, 50 µL RPMI 1640 Medium without fetal bovine serum and penicillin/streptomycin containing 3 mg/mL 3-(4,5-dimethylthiazol-2-yl)-2,5-diphenyltetrazolium bromide (Sigma-Aldrich, MO, USA) was added to each well and cells were kept at 37° C. under 5% CO2 for another 4 h. Subsequently, the medium was removed, and the precipitated formazan dye taken up in DMSO (50 µL). The absorbance of the solutions was measured at 540 nm with an M5 microplate reader (Molecular Devices, USA) and 0.33 absorbance units were subtracted from all wells (this absorbance value corresponds to wells containing DMSO without dye - control). The absorbance of each row of wells were averaged and were directly proportional to the number of viable cells after drug treatment.
The antiproliferative activity of compounds 1-10 was evaluated in A549 lung cancer cells, a cell line with a well- established sensitivity to iron imbalance (Loza-Rosas et al., 2017; Ohara et al., 2013). For each compound, cellular proliferation profiles were produced via a standard MTT (3-(4,5-dimethylthiazol-2-yl)-2,5-diphenyltetrazolium bromide) assay for exposure times of 72 h and 24 h, respectively. From these proliferation profiles, averaged IC50 values and Hill slope (HS) parameters were determined via linear regression analysis.

[2] = Behaviour in aqueous media (solubility, aggregation, DLS); format: physicochemical; details: water; neutral pH for ExJade
Method: Several new ExJade derivatives, designed to control solubility and modulate the intrinsic electronic features, namely ExPh, ExPh-OMe, ExH, ExBT, ExBT-OMe and ExPhos, were prepared. […] In marked contrast to what is seen in aqueous environments, solutions of ExPh and ExBT in most common organic solvents display no appreciable emission.
No significant fluorescence quenching was seen upon changing the solvents in which ExPh-OMe and ExBT-OMe were analyzed - DMSO, PhMe, THF, DCM, acetone, MeCN, MeOH and PBS. […] This putative ICT phenomenon has been observed in structurally similar N-phenylpyrrole analogues (Yoshihara et al., 2005; Yoshihara et al., 2003). Further support for the proposed aqueous induced aggregation mechanism invoked in the case of ExPh and […] came from studies of the parent system, ExJade.

[3] = system: Pseudomonas aeruginosa (ATCC 27853); assay: Bacterial growth inhibition; format: cell-based
Method: (§1) Similarly, the bacterial inhibitory effect of the present ExJade derivatives was then evaluated. Initial tests were focused on two Gram-negative, ESKAPE bacteria (Mulani et al., 2019), Pseudomonas aeruginosa (ATCC 27853) and Klebsiella pneumoniae (ATCC 13883). Arbekacin, an FDA-approved aminoglycoside-based antibiotic, was used as positive control.
(§2) This observation confirms the Fe(III) chelation dependent inhibitory activity. Due to the Fe(III) chelation dependent nature of the ExJade derivatives and to illustrate their potential “real life” utility, the inhibitory activity of ExBT and ExPhos against MRSA were evaluated in a blood containing medium consisting of agar and defibrillated amniotic blood (Filipowicz et al., 2003).

[4] = system: Klebsiella pneumoniae (ATCC 13883); assay: Bacterial growth inhibition; format: cell-based
Method: as §1

[5] = system: methicillin-resistant Staphylococcus aureus (MRSA, ATCC 43300); assay: Inhibition of drug-resistant bacteria (colonies, cell viability); format: cell-based; details: agar and defibrillated amniotic blood
Method: Cell viability of (FIG. 4B) MRSA (ATCC 43300) and (FIG. 4C) VRE (ATCC 51299) before and after treatment with ExBT, ExJade, ExPhos, and arbekacin (15 µM).
More importantly, two clinically relevant gram-positive, drug-resistant bacteria, methicillin-resistant Staphylococcus aureus (MRSA, ATCC 43300) and vancomycin-resistant Enterococcus faecalis (VRE, ATCC 51299) with high ALP activity were then used to evaluate further the therapeutic potential of these ExJade derivatives. Again, arbekacin was used as a positive control. […] The observed inhibition of VRE is of particular significance since there are few clinically available treatments for this multidrug-resistant bacterium.
as §2

[6] = system: P. aeruginosa biofilms; assay: Live/dead biofilm viability assay on glass slides; format: cell-based, Pseudomonas aeruginosa; details: CFP-SUL 16 µg/mL alone or combined with chelator 64 µg/mL
Method: (§3) FIGS. 11A & 11B show biofilm experiments. (FIG. 11A) Evaluation of CFP-SUL (cefoperazone-sulbactam; 16 µg/mL), CFP-SUL@ExBT (16 µg/mL@64 µg/mL), CFP-SUL@deferasirox (16 µg/mL@64 µg/mL), and CFP-SUL@ExPhos (16 µg/mL@64 µg/mL) for the treatment of P. aeruginosa and MRSA biofilms. Processed 3D images of P. aeruginosa and MRSA biofilms on glass slides using the live/dead biofilm viability assay. Distributions of PI-stained (red, dead bacteria) and Syto9-stained (green, live bacteria) (FIG. 11B) P. aeruginosa and MRSA biovolumes and CFU counts (purple dots) for the above groups. Biovolume data are mean values of three independent replicates.
(§4) Biofilm experiments were carried out on glass slides with both Pseudomonas aeruginosa and MRSA. The therapeutic performance of the broad-spectrum antibiotic cefoperazonesulbactam (CFP-SUL) (Sheu et al., 2020) was evaluated on its own and in combination with deferasirox, ExBT, and ExPhos using the live/dead biofilm caption viability assay (propidium iodide (PI): dead, red; Syto9: live, green).

[7] = system: MRSA biofilms; assay: Live/dead biofilm viability assay on glass slides; format: cell-based, Staphylococcus aureus; details: CFP-SUL 16 µg/mL alone or combined with chelator 64 µg/mL
Method: as §3, §4

[8] = system: alkaline phosphatase (ALP); assay: Alkaline phosphatase response of the pro-chelator (fluorescence); format: biochemical; details: 15 µM, ALP 0-64 U
From the text: This ratiometric change in fluorescence emission was ascribed to the gradual and stepwise dephosphorylation of ExPhos, which was confirmed by LC-MS analysis. ExPhos solutions exposed to ALP (64 U ALP) were subsequently treated with increasing concentrations of Fe(III) (as the FeCl3 salt). […] Based on these findings, we considered it likely that ExPhos could serve as an ALP-responsive Fe(III) pro-chelator.
Recently, protected versions of known metal chelators (“prochelators”) have been explored in an effort to avoid premature metal chelation (Wang et al., 2016). The bis-phosphate ester ExPhos was thus prepared as a phosphatase-responsive fluorescent pro-chelator that would permit detection of a disease-based biomarker (i.e., alkaline phosphatase, ALP) (Zhang et al., 2020; McCullough and Barrios, 2020; Haarhaus et al., 2017; Gwynne et al., 2019). […] Timedependent changes in fluorescence emission intensity were also seen. The limit of detection (LoD) was calculated to be 0.016 75 U (measurements performed after 5 min of incubation). The ratiometric change in the fluorescence emission was ascribed to the gradual and stepwise (bis-phosphate ester to monophosphate ester to bisphenol) dephosphorylation of ExPhos (as confirmed by LCMS analyses). This sequential conversion leads to a rapid decrease in the blue emission and a slow increase in the green emission. […]

[9] = 24 h incubation, read-out: IC50 (24 h)
[10] = 72 h incubation, read-out: IC50 (72 h)

Row | IC50 [1, 9] [µM] | IC50 [1, 10] | SMILES | solubility in aqueous media [2] | inhibition of bacterial growth [3] | inhibition of bacterial growth [4] | also measured
1 |  |  | O=C(O)c1ccc(-n2nc(-c3ccccc3O)nc2-c2ccccc2O)cc1 [Compound 1, deferasirox, reference compound] | good solubility |  |  | cytotoxicity when cells were supplemented with FeCl3 ([1]; A549, 50 µM FeCl3, 72 h of exposure): no longer produced any observable cytotoxicity; IC50 ([1]; Homo sapiens, 24 h incubation, read-out: IC50 (24 h)): > 50 µM; IC50 ([1]; Homo sapiens, 72 h incubation, read-out: IC50 (72 h)): 8.5 µM
2 | > 50 | 2.6 µM and 3.6 µM | O=C(c1ccc(-n2nc(-c3ccccc3O)nc2-c2ccccc2O)cc1)N1CCOCC1 [Compound 4] |  |  |  | 
3 |  |  | Oc1ccccc1-c1nc(-c2ccccc2O)n(-c2ccccc2)n1 [ExPh] | insoluble aggregates | capable of inhibiting the growth | capable of inhibiting the growth | 
4 | 21 ± 3 | 1.6 µM and 2.5 µM | COC(=O)c1ccc(-n2nc(-c3ccccc3O)nc2-c2ccccc2O)cc1 [Compound 2] |  |  |  | 
5 |  |  | Oc1ccccc1-c1nc(-c2ccccc2O)n(-c2ccc(-c3nc4ccccc4s3)cc2)n1 [ExBT] | insoluble aggregates | capable of inhibiting the growth | capable of inhibiting the growth | inhibitory activity in blood containing medium [5]: remaining strong; antibiofilm effect [6]: enhanced; antibiofilm effect [7]: enhanced
6 |  |  | O=P(O)(O)Oc1ccccc1-c1nc(-c2ccccc2OP(=O)(O)O)n(-c2ccc(-c3nc4ccccc4s3)cc2)n1 [ExPhos] |  | capable of inhibiting the growth | capable of inhibiting the growth | cytotoxicity towards A549 cells ([1]; pro-chelator, in words): no significant cytotoxicity; inhibitory activity in blood containing medium [5]: remaining strong; antibiofilm effect [6]: enhanced; antibiofilm effect [7]: enhanced; change in fluorescence emission in the presence of ALP [8]: dose dependent change

Row | SMILES | IC50 [1, 9] [µM] | IC50 [1, 10] | solubility in aqueous media [2] | inhibition of bacterial growth [3] | inhibition of bacterial growth [4] | also measured
7 | O=C1[O][Pt]2([NH][C@@H]3CCCC[C@H]3[NH]2)[O]C1=O [Ox-Pt, oxaliplatin, reference compound] | > 50 | 0.5 ± 0.1 µM |  |  |  | 
